From patent US12691130B2, “Compositions and methods for improving cognitive function” (Diamond Therapeutics Inc., priority 2019, dated 2026)
Entries after “also recorded” stand apart in the source; their conditions may differ.

How the values were obtained:
Long Evans rats [1] = assay: 5-choice serial reaction time task (5CSRTT), standard conditions, 5 s ITI; type: in vivo
Description: Asterisk (*) indicates statistical difference vs. vehicle. […] High performers are defined as rats completing the highest tertile of Hits or Correct nose-pokes in the baseline test; low performers are rats completing the bottom tertile of Hits or Correct nose-pokes in the baseline test.
Asterisk (*) indicates statistical significance vs. vehicle.
(§1) Experiments were conducted to test psilocybin doses in the range of 0.05-0.2 mg/kg psilocybin administered S.C. across progressive ratio (PR) and 5-choice serial reaction time task (5CSRTT) to examine the effect of psilocybin on endophenotypes of motivation and attention. In each study, a population of out-bred Long Evans rats was first tested as a group for response to the PR and 5CSRTT. Each group was then divided into sub-groups by tertiles according to performance, and then exposed to various dose levels immediately prior to re-testing at various psilocybin dose levels.
The 5CSRTT involves evaluating test subject response to a brief visual stimulus (Higgins, Guy & Silenieks, Leonardo. (2017). Rodent Test of Attention and Impulsivity: The 5-Choice Serial Reaction Time Task: The 5-Choice Serial Reaction Time Task. 10.1002/cpph.27). Animals are trained to make a nose-poke response to a stimulus location in order to collect a food reward. The task allows the experimenter to measure animal performance in multiple domains including: • Attention • Impulsivity • Perseveration • Speed of response
A strength of the test is its flexible configuration to challenge test subjects: • Standard test conditions (0.75 s stimulus duration (SD), 5 s inter-trial interval (ITI), 100 trials) • Multiple short stimulus duration (mSD) (0.03-1 s SD) • Fixed long ITI (5 s vs. 10 s ITI) • Multiple ultrashort ITI (2-5 s ITI) • Extended 250 trials
Asterisk (*) indicates statistical significance vs. vehicle. (FIG. 3A).
When this population is segmented into tertiles according to performance based on accuracy (% correct, calculated as #correct/(#correct+ #incorrect)*100), the lowest performing tertile (N=8) are considered to be low attentive and potentially representative of a low attentive endophenotype of depression (FIG. 6A). Low attentive rats also score poorly on % hit (FIG. 6B) and have a slower response speed (FIG. 6D). […] Asterisk (*) indicates statistical significance vs. vehicle.

Long Evans rats [2] = assay: 5CSRTT with 10 s ITI, premature (PREM) and perseverative (PSV) responses; type: in vivo; conditions: 0.05 mg/kg S.C., 24 rats
Description: A) Graphs show increase in PREM and PSV responses under a 5 second inter-trial interval (ITI) which establishes a baseline (Base) and a 10 second ITI across 24 animals across two doses of psilocybin (0.05 mg/kg and 0.1 mg/kg). Standard deviation is indicated by error bars; asterisks (*) indicate significance vs. vehicle (P=0.05) using T-test. B) Graphs show effects of psilocybin on PREM and PSV in low performer and high performer subgroups. Standard error of the mean is indicated by error bars; asterisks (*) indicate significance vs. vehicle (P<0.01) using T-test. High performers are defined as rats with the highest tertile of premature responses in the baseline test; low performers are rats with the bottom tertile of premature responses in the baseline test.
as §1, with “levels. […]” for “levels.”

[3] = Psilocybin plasma pharmacokinetics after s.c. psilocybin; type: in vivo; conditions: rats
Description: Psilocybin doses of 0.05, 0.1, 1, 10 mg/kg were used to evaluate psilocybin and psilocin PK in rats.
Details of the plasma concentration studies are shown in Tables 1-8 (psilocybin) and 9-16 (psilocin). Values in italics are below the lower level of quantitation (BLQ, <1 ng/mL) but were included in calculations. Values in bold and underlined are considered to be outliers and were omitted from calculations. Measured dosing solution concentrations were 0.0460, 0.0967, 0.948 and 9.65 mg/mL for 0.05, 0.1, 1 and 10 […].

rats = assay: Dose finding: locomotor activity (distance travelled); type: in vivo
Source text: Stimulant drugs cause far larger increases in distance travelled with escalating doses, reflective of a direct motor stimulant property not seen with psilocybin.

5-HT2A receptor = 5-HT2A receptor (Rattus norvegicus, UniProt P14842); assay: Dose finding: behavioral syndrome, wet dog shakes (WDS) and back muscle contractions (BMC); conditions: rats
Description: The total number (N) of wet dog shakes (WDS) and back muscle contractions (BMC) is plotted against dose (mg/kg).
Psilocybin was tested at a dose range of 0.03-10.0 mg/kg administered sub-cutaneously (S.C.) Behavioral syndrome including wet dog shakes (WDS) and back muscle contractions (BMC) are characteristic of 5-HT2A receptor activity and potentially indicative of psychomotor signs. […] There is a parallel between behaviors such as WDS in rats and hallucination in humans (Behavioral Neurobiology of Psychedelic Drugs, Halberstadt, Adam, Vollenweider, Franz X., Nichols, David E. (Eds.), Springer, 2018, p 161).

Long Evans rats [4] = assay: Progressive ratio (PR) test of motivation; type: in vivo
Description: High responders are defined as rats completing the highest tertile of lever presses in the baseline test; low responders are rats completing the bottom tertile of lever presses in the baseline test. Asterisk (*) indicates statistical significance between high and low responders.
as §1
The PR test is used to answer how willing the test subject is to work for food (i.e. test of motivation). A single 45 mg food pellet (i.e. reinforcer) is made available to the test animal based on lever press response. To obtain each successive pellet, the animal must make increasingly more lever presses. Typically, a progression of 2, 4, 6, 9, 12, 15, 20, 25, 32, 40, 50, 62, 77, 95, 118, etc. is used, derived from the equation: […]
At some point, the animal gives up as the motor demands to obtain a single pellet are not deemed worthwhile (i.e. animal reaches “break point” defined as animal's failure to earn a food pellet in 20 minutes).
Psilocybin was administered to rats S.C. at doses of 0.05, 0.1 and 0.2 mg/kg.
Rats were then sub-grouped into tertiles based on the number of lever presses for food at baseline, so that within the test population of 36 animals, 12 animals were identified as low responders, characterized by low motivation and potentially corresponding to low motivation endophenotype representative of clinical depression. Twelve animals were identified as high responders. There was a statistically significant difference between the high and low responders. […] This represents a motivational enhancing effect of psilocybin in the cohort corresponding to a low motivation endophenotype representative of clinical depression.

Chain of 5-HT2A receptor (P14842 whole entry): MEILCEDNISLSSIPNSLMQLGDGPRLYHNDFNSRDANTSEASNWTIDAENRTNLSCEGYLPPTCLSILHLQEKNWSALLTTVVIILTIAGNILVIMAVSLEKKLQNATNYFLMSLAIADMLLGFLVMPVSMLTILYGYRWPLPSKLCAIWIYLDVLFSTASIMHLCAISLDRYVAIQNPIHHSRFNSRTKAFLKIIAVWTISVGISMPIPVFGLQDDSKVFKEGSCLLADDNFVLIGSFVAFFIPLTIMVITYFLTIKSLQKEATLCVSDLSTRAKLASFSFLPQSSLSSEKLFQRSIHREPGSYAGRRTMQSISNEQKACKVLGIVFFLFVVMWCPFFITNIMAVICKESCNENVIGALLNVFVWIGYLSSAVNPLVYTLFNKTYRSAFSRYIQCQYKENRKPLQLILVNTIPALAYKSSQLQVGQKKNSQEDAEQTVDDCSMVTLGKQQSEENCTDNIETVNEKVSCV

CN(C)CCc1c[nH]c2cccc(OP(=O)(O)O)c12 [psilocybin, 4-phosphoryloxy-N,N-dimethyltryptamine]
pro-cognitive effect, % hit (Long Evans rats [1]; 0.05 mg/kg S.C., 24 rats, 75 s SD, 5 S ITI, 100 trials, vs. vehicle): increased (p=0.05, t-test) pro-cognitive effect
procognitive effect, % correct (Long Evans rats [1]; 0.05 mg/kg S.C., 24 rats, standard conditions): slight non-significant increase in procognitive effect
response speed (Long Evans rats [1]; 0.05 mg/kg, low attentive cohort, vs. vehicle): increased response speed in the low attentive cohort compared with vehicle; also recorded: Significant improvements
effect on accuracy (% correct and % hit) (Long Evans rats [1]; 0.05 and 0.1 mg/kg, low attentive subgroup (N=8), vs. vehicle): strongly evident in the low attentive subgroup compared with vehicle; also recorded: Significant improvements
PREM and PSV responses (Long Evans rats [2]): an increase (p=0.05, t-test) increase in PREM and PSV responses
AUC0-tlast, psilocybin, Mean ([3]; 0.05 mg/kg s.c.): 10.7 ng·h/mL
Cmax, psilocybin, Mean ([3]; 0.05 mg/kg s.c.): 18.9 ng/mL
Cmax/Dose, psilocybin, Mean ([3]; 0.05 mg/kg s.c.): 377 kg·ng/mL/mg
tmax, psilocybin, Mean ([3]; 0.05 mg/kg s.c.): 36 min
AUC0-tlast, psilocybin, Mean ([3]; 0.1 mg/kg s.c.): 11.4 ng·h/mL
Cmax, psilocybin, Mean ([3]; 0.1 mg/kg s.c.): 31.4 ng/mL
Cmax/Dose, psilocybin, Mean ([3]; 0.1 mg/kg s.c.): 314 kg·ng/mL/mg
tmax, psilocybin, Mean ([3]; 0.1 mg/kg s.c.): 19.3 min
AUC0-inf, psilocybin, Mean ([3]; 1.0 mg/kg s.c.): 47.9 ng·h/mL
AUC0-inf/Dose, psilocybin, Mean ([3]; 1.0 mg/kg s.c.): 47.9 kg·ng·h/mL/mg
AUC0-tlast, psilocybin, Mean ([3]; 1.0 mg/kg s.c.): 53.1 ng·h/mL
Apparent t1/2, psilocybin, Mean ([3]; 1.0 mg/kg s.c.): 26.7 min
Cmax, psilocybin, Mean ([3]; 1.0 mg/kg s.c.): 78.3 ng/mL
Cmax/Dose, psilocybin, Mean ([3]; 1.0 mg/kg s.c.): 78.3 kg·ng/mL/mg
MRT0-inf, psilocybin, Mean ([3]; 1.0 mg/kg s.c.): 44.8 min
tmax, psilocybin, Mean ([3]; 1.0 mg/kg s.c.): 21.4 min
AUC0-inf, psilocybin, Mean ([3]; 10 mg/kg s.c.): 2156 ng·h/mL
AUC0-inf/Dose, psilocybin, Mean ([3]; 10 mg/kg s.c.): 216 kg·ng·h/mL/mg
AUC0-tlast, psilocybin, Mean ([3]; 10 mg/kg s.c.): 1707 ng·h/mL
Apparent t1/2, psilocybin, Mean ([3]; 10 mg/kg s.c.): 34 min
Cmax, psilocybin, Mean ([3]; 10 mg/kg s.c.): 3595 ng/mL
Cmax/Dose, psilocybin, Mean ([3]; 10 mg/kg s.c.): 359 kg·ng/mL/mg
MRT0-inf, psilocybin, Mean ([3]; 10 mg/kg s.c.): 43 min
tmax, psilocybin, Mean ([3]; 10 mg/kg s.c.): 30 min
distance travelled (rats; high doses): slightly decreased distanced travelled
increase in distance travelled (rats; low doses): 0.3-0.4 fold
signs of behavioral syndrome (WDS, BMC) (5-HT2A receptor; 0.3 mg/kg I.P and higher): significant signs of behavior syndrome
signs of behavioral syndrome (WDS, BMC) (5-HT2A receptor; 0.03-0.1 mg/kg S.C.): no signs of behavioral syndrome
PR food responding (lever presses, break point) (Long Evans rats [4]; 0.05 mg/kg S.C., low responder subgroup (12 rats)): an increase in food responding in low responder subgroup; also recorded: Significant improvements
PR food responding (Long Evans rats [4]; 0.1 mg/kg S.C., low responder subgroup (12 rats)): did not produce an increase in food responding
number of lever presses or break points (rewards earned) (Long Evans rats [4]; 0.05, 0.1 and 0.2 mg/kg S.C., entire study population of 36 rats): None of these doses were observed to cause obvious changes in the number of lever presses or break points
PR response (lever presses) (Long Evans rats [4]; 0.05-0.2 mg/kg S.C., high responder subgroup (12 rats)): no effect on response in high responder subgroup
detrimental effects on performance (motivation, motor control, attention, response speed) (Long Evans rats [4]; PR 0.05-0.2 mg/kg and 5CSRTT 0.05-0.1 mg/kg S.C.): no detrimental effects of psilocybin were noted on performance
